According to patent US20100273189A1, “NON SEPARATION ASSAYS WITH SELECTIVE SIGNAL INHIBITORS” (BECKMAN COULTER, INC., priority 2009, published 2010):

How the values were obtained:
Type in all cases: biochemical
[1] = system: PSA; test: Effect of trigger pH: PSA on LodeStar particles with ascorbate
Procedure: (§1) B. In order to determine the effect of trigger solution pH on a variety of test assay systems, a series of experiments were conducted varying trigger pH. […] In the tables, two pH values are listed for each data set. The first is the pH of the buffer sample added to the reaction mixture. The second is the resulting pH of the final reaction mix.

[2] = system: myoglobin; test: Myoglobin assay, AK-Ab1 particle + HRP-Ab2 conjugate; details: ascorbic acid employed
Procedure: This example describes a method of detecting myoglobin using a AK-Abl particle prepared as set forth in Example 3 and a HRP-Ab2 conjugate prepared as set forth in Example 4 where Ab2 represents an antibody to myoglobin. This method employed ascorbic acid to decrease background signal.
HRP-Ab2 conjugate suspensions were prepared at 1.0 μg/mL and contained either 0 or 1 mM ascorbic acid. Samples consisted of human serum samples with the indicated mounts of myoglobin added or no myoglobin as a control. The test procedure consisted of adding 20 μL of 1.0 μg/mL HRP-Ab2 conjugate and 30 μl of MES buffer containing 1 mg/mL BSA and 1 mg/mL MIgG, pH 5.9 to the reaction vessel. Next, 25 μL of patient serum sample was added, followed by 25 μL of 5.0 mg/mL AK-Abl conjugate suspension thereby obtaining 100 μL of total volume in the reaction vessel. After 15.2 minutes, […] of trigger solution A was added to the reaction vessel and the light intensity was recorded on the modified DxI instrument. Chemiluminescence intensity is expressed in Relative Light Units (RLU).

[3] = system: biotin-HRP; test: Effect of ascorbic acid incubation time on chemiluminescence, Dynal M-280 biotin-HRP system; details: incubation time 80-330 seconds; ascorbic acid 0-200 μM; in words
Procedure: The effect of the length of time that a sample is exposed to ascorbic acid on the observed reduction of chemiluminescence intensity was investigated in a series of experiments employing the Dynal M-280 PMP particles and biotin-HRP system described in Example 11. Briefly, biotin-labeled PMPs, and various biotin-HRP/HRP solutions were allowed to bind and ascorbic acid solutions added. After a delay period ranging from 80-330 seconds, trigger solution A was injected and the chemiluminescence intensity integrated. The biotin-HRP/HRP solutions contained a total of 200 ng/mL HRP in the proportion 1:200, 8:192, and 32:168 biotin-HRP:HRP. Trials were run using various concentrations of ascorbic acid as the Sample in water at 0, 25, 50 100 and 200 μM.

[4] = system: CK-MB; test: Effect of trigger pH: CK-MB on LodeStars with ascorbate
Procedure: as §1

[5] = Control (7.7), S1, PSA 400 pg/ml
[6] = Control (7.7), S2, PSA 1400 pg/ml
[7] = Control (7.7), S3, PSA 7000 pg/ml
[8] = Control (7.7), S4, PSA 51000 pg/ml
[9] = Control (7.7), S5, PSA 101600 pg/ml
[10] = pH 6.0 (6.2), S1, PSA 400 pg/ml
[11] = pH 6.0 (6.2), S2, PSA 1400 pg/ml
[12] = pH 6.0 (6.2), S3, PSA 7000 pg/ml
[13] = pH 6.0 (6.2), S4, PSA 51000 pg/ml
[14] = pH 6.0 (6.2), S5, PSA 101600 pg/ml
[15] = pH 7.0 (7.4), S1, PSA 400 pg/ml
[16] = pH 7.0 (7.4), S2, PSA 1400 pg/ml
[17] = pH 7.0 (7.4), S3, PSA 7000 pg/ml
[18] = pH 7.0 (7.4), S4, PSA 51000 pg/ml
[19] = pH 7.0 (7.4), S5, PSA 101600 pg/ml
[20] = pH 8.0 (7.9), S1, PSA 400 pg/ml
[21] = pH 8.0 (7.9), S2, PSA 1400 pg/ml
[22] = pH 8.0 (7.9), S3, PSA 7000 pg/ml
[23] = pH 8.0 (7.9), S4, PSA 51000 pg/ml
[24] = pH 8.0 (7.9), S5, PSA 101600 pg/ml
[25] = pH 9.0 (8.4), S1, PSA 400 pg/ml
[26] = pH 9.0 (8.4), S2, PSA 1400 pg/ml
[27] = pH 9.0 (8.4), S3, PSA 7000 pg/ml
[28] = pH 9.0 (8.4), S4, PSA 51000 pg/ml
[29] = pH 9.0 (8.4), S5, PSA 101600 pg/ml
[30] = Control (7.0), S1, CK-MB 3200 ng/ml
[31] = Control (7.0), S2, CK-MB 9150 ng/ml
[32] = Control (7.0), S3, CK-MB 26300 ng/ml
[33] = Control (7.0), S4, CK-MB 94600 ng/ml
[34] = Control (7.0), S5, CK-MB 268750 ng/ml
[35] = pH 6.0 (5.9), S1, CK-MB 3200 ng/ml
[36] = pH 6.0 (5.9), S2, CK-MB 9150 ng/ml
[37] = pH 6.0 (5.9), S3, CK-MB 26300 ng/ml
[38] = pH 6.0 (5.9), S4, CK-MB 94600 ng/ml
[39] = pH 6.0 (5.9), S5, CK-MB 268750 ng/ml
[40] = pH 7.0 (6.8), S1, CK-MB 3200 ng/ml
[41] = pH 7.0 (6.8), S2, CK-MB 9150 ng/ml
[42] = pH 7.0 (6.8), S3, CK-MB 26300 ng/ml
[43] = pH 7.0 (6.8), S4, CK-MB 94600 ng/ml
[44] = pH 7.0 (6.8), S5, CK-MB 268750 ng/ml
[45] = pH 8.0 (7.8), S1, CK-MB 3200 ng/ml
[46] = pH 8.0 (7.8), S2, CK-MB 9150 ng/ml
[47] = pH 8.0 (7.8), S3, CK-MB 26300 ng/ml
[48] = pH 8.0 (7.8), S4, CK-MB 94600 ng/ml
[49] = pH 8.0 (7.8), S5, CK-MB 268750 ng/ml
[50] = pH 9.0 (8.6), S1, CK-MB 3200 ng/ml
[51] = pH 9.0 (8.6), S2, CK-MB 9150 ng/ml
[52] = pH 9.0 (8.6), S3, CK-MB 26300 ng/ml
[53] = pH 9.0 (8.6), S4, CK-MB 94600 ng/ml
[54] = pH 9.0 (8.6), S5, CK-MB 268750 ng/ml

Structure (SMILES): O=C1O[C@H]([C@@H](O)CO)C(O)=C1O [Ascorbic Acid, Ascorbic acid]
- Mean RLU ([1]; Control (7.7), S0, PSA 0 pg/ml): 8,192 RLU
- Mean RLU [1, 5]: 91,301 RLU
- S/S0 [1, 5]: 11.1
- Mean RLU [1, 6]: 403,035 RLU
- S/S0 [1, 6]: 49.2
- Mean RLU [1, 7]: 2,803,433 RLU
- S/S0 [1, 7]: 342.2
- Mean RLU [1, 8]: 10,490,375 RLU
- S/S0 [1, 8]: 1280.6
- Mean RLU [1, 9]: 10,598,780 RLU
- S/S0 [1, 9]: 1293.8
- Mean RLU ([1]; pH 6.0 (6.2), S0, PSA 0 pg/ml): 3,301 RLU
- Mean RLU [1, 10]: 34,485 RLU
- S/S0 [1, 10]: 10.4
- Mean RLU [1, 11]: 114,219 RLU
- S/S0 [1, 11]: 34.6
- Mean RLU [1, 12]: 786,859 RLU
- S/S0 [1, 12]: 238.3
- Mean RLU [1, 13]: 3,198,045 RLU
- S/S0 [1, 13]: 968.7
- Mean RLU [1, 14]: 3,728,345 RLU
- S/S0 [1, 14]: 1129.3
- Mean RLU ([1]; pH 7.0 (7.4), S0, PSA 0 pg/ml): 7,704 RLU
- Mean RLU [1, 15]: 87,221 RLU
- S/S0 [1, 15]: 11.3
- Mean RLU [1, 16]: 333,253 RLU
- S/S0 [1, 16]: 43.3
- Mean RLU [1, 17]: 2,640,633 RLU
- S/S0 [1, 17]: 342.8
- Mean RLU [1, 18]: 9,524,603 RLU
- S/S0 [1, 18]: 1236.3
- Mean RLU [1, 19]: 10,001,948 RLU
- S/S0 [1, 19]: 1298.3
- Mean RLU ([1]; pH 8.0 (7.9), S0, PSA 0 pg/ml): 9,345 RLU
- Mean RLU [1, 20]: 96,427 RLU
- S/S0 [1, 20]: 10.3
- Mean RLU [1, 21]: 429,327 RLU
- S/S0 [1, 21]: 45.9
- Mean RLU [1, 22]: 3,433,037 RLU
- S/S0 [1, 22]: 367.4
- Mean RLU [1, 23]: 11,497,652 RLU
- S/S0 [1, 23]: 1230.3
- Mean RLU [1, 24]: 11,461,215 RLU
- S/S0 [1, 24]: 1226.4
- Mean RLU ([1]; pH 9.0 (8.4), S0, PSA 0 pg/ml): 5,821 RLU
- Mean RLU [1, 25]: 73,801 RLU
- S/S0 [1, 25]: 12.7
- Mean RLU [1, 26]: 315,528 RLU
- S/S0 [1, 26]: 54.2
- Mean RLU [1, 27]: 2,592,673 RLU
- S/S0 [1, 27]: 445.4
- Mean RLU [1, 28]: 11,443,659 RLU
- S/S0 [1, 28]: 1965.8
- Mean RLU [1, 29]: 11,479,280 RLU
- S/S0 [1, 29]: 1971.9
- RLU ([2]; S0, 11.4 ng/mL): 1,183 RLU
- RLU ([2]; S1, 56.3 ng/mL): 5,557 RLU
- S/S0 ([2]; S1, 56.3 ng/mL): 5
- RLU ([2]; S2, 221 ng/mL): 31,947 RLU
- S/S0 ([2]; S2, 221 ng/mL): 27
- RLU ([2]; S3, 864 ng/mL): 190,076 RLU
- S/S0 ([2]; S3, 864 ng/mL): 161
- RLU ([2]; S4, 2016 ng/mL): 1,315,465 RLU
- S/S0 ([2]; S4, 2016 ng/mL): 1,048
- RLU ([2]; S5, 3136 ng/mL): 4,667,341 RLU
- S/S0 ([2]; S5, 3136 ng/mL): 3,945
- effect of ascorbic acid incubation time on observed chemiluminescence [3]: does not appear to cause a significant effect
- Mean RLU ([4]; Control (7.0), S0, CK-MB 600 ng/ml): 1,837 RLU
- Mean RLU [4, 30]: 7,380 RLU
- S/S0 [4, 30]: 4.0
- Mean RLU [4, 31]: 22,931 RLU
- S/S0 [4, 31]: 12.5
- Mean RLU [4, 32]: 75,857 RLU
- S/S0 [4, 32]: 41.3
- Mean RLU [4, 33]: 427,483 RLU
- S/S0 [4, 33]: 232.7
- Mean RLU [4, 34]: 2,055,748 RLU
- S/S0 [4, 34]: 1118.9
- Mean RLU ([4]; pH 6.0 (5.9), S0, CK-MB 600 ng/ml): 693 RLU
- Mean RLU [4, 35]: 2,849 RLU
- S/S0 [4, 35]: 4.1
- Mean RLU [4, 36]: 6,812 RLU
- S/S0 [4, 36]: 9.8
- Mean RLU [4, 37]: 28,129 RLU
- S/S0 [4, 37]: 40.6
- Mean RLU [4, 38]: 119,144 RLU
- S/S0 [4, 38]: 171.8
- Mean RLU [4, 39]: 754,177 RLU
- S/S0 [4, 39]: 1087.8
- Mean RLU ([4]; pH 7.0 (6.8), S0, CK-MB 600 ng/ml): 1,788 RLU
- Mean RLU [4, 40]: 8,409 RLU
- S/S0 [4, 40]: 4.7
- Mean RLU [4, 41]: 22,669 RLU
- S/S0 [4, 41]: 12.7
- Mean RLU [4, 42]: 84,704 RLU
- S/S0 [4, 42]: 47.4
- Mean RLU [4, 43]: 370,193 RLU
- S/S0 [4, 43]: 207.0
- Mean RLU [4, 44]: 2,084,173 RLU
- S/S0 [4, 44]: 1165.6
- Mean RLU ([4]; pH 8.0 (7.8), S0, CK-MB 600 ng/ml): 3,263 RLU
- Mean RLU [4, 45]: 15,725 RLU
- S/S0 [4, 45]: 4.8
- Mean RLU [4, 46]: 42,805 RLU
- S/S0 [4, 46]: 13.1
- Mean RLU [4, 47]: 150,140 RLU
- S/S0 [4, 47]: 46.0
- Mean RLU [4, 48]: 788,451 RLU
- S/S0 [4, 48]: 241.7
- Mean RLU [4, 49]: 4,618,668 RLU
- S/S0 [4, 49]: 1415.6
- Mean RLU ([4]; pH 9.0 (8.6), S0, CK-MB 600 ng/ml): 1,512 RLU
- Mean RLU [4, 50]: 9,508 RLU
- S/S0 [4, 50]: 6.3
- Mean RLU [4, 51]: 28,387 RLU
- S/S0 [4, 51]: 18.8
- Mean RLU [4, 52]: 74,359 RLU
- S/S0 [4, 52]: 49.2
- Mean RLU [4, 53]: 561,103 RLU
- S/S0 [4, 53]: 371.1
- Mean RLU [4, 54]: 3,286,012 RLU
- S/S0 [4, 54]: 2173.3
